{"source": "ChEMBL document CHEMBL1201861", "about": "“Genomics of Drug Sensitity in Cancer screening data, Wellcome Trust Sanger Institute”", "key": {"EB2": {"system": "EB2", "assay": "cells", "type": "functional, cell-based, Homo sapiens", "details": "Homo sapiens, EB2", "description": "SANGER: Inhibition of human EB2 cell growth in a cell viability assay."}, "EVSA-T": {"system": "EVSA-T", "assay": "cells", "type": "functional, cell-based, Homo sapiens", "details": "Homo sapiens, EVSA-T", "description": "SANGER: Inhibition of human EVSA-T cell growth in a cell viability assay."}, "IM-9": {"system": "IM-9", "assay": "SANGER: Inhibition of human IM-9 cell growth in a cell viability assay.", "type": "functional, cell-based", "details": "Homo sapiens, IM-9"}, "IMR-5": {"system": "IMR-5", "assay": "cells", "type": "functional, cell-based, Homo sapiens", "details": "Homo sapiens, IMR-5", "description": "SANGER: Inhibition of human IMR-5 cell growth in a cell viability assay."}, "LC4-1": {"system": "LC4-1", "assay": "cells", "type": "functional, cell-based, Homo sapiens", "details": "Homo sapiens, LC4-1", "description": "SANGER: Inhibition of human LC4-1 cell growth in a cell viability assay."}, "LP-1": {"system": "LP-1", "assay": "cells", "type": "functional, cell-based, Homo sapiens", "details": "Homo sapiens, LP-1", "description": "SANGER: Inhibition of human LP-1 cell growth in a cell viability assay."}, "NCI-H2141": {"system": "NCI-H2141", "assay": "cells", "type": "functional, cell-based, Homo sapiens", "details": "Homo sapiens, NCI-H2141", "description": "SANGER: Inhibition of human NCI-H2141 cell growth in a cell viability assay."}, "RPMI 8402": {"system": "RPMI 8402", "assay": "SANGER: Inhibition of human RPMI-8402 cell growth in a cell viability assay.", "type": "functional, cell-based", "details": "Homo sapiens, RPMI 8402; read-out: IC50"}, "SNU-C1": {"system": "SNU-C1", "assay": "cells", "type": "functional, cell-based, Homo sapiens", "details": "Homo sapiens, SNU-C1", "description": "SANGER: Inhibition of human SNU-C1 cell growth in a cell viability assay."}, "TALL-1": {"system": "TALL-1", "assay": "cells", "type": "functional, cell-based, Homo sapiens", "details": "Homo sapiens, TALL-1", "description": "SANGER: Inhibition of human TALL-1 cell growth in a cell viability assay."}, "BL-70": {"system": "BL-70", "assay": "SANGER: Inhibition of human BL-70 cell growth in a cell viability assay.", "type": "functional, cell-based", "details": "Homo sapiens, BL-70"}, "YT": {"system": "YT", "assay": "cells", "type": "functional, cell-based, Homo sapiens", "details": "Homo sapiens, YT", "description": "SANGER: Inhibition of human YT cell growth in a cell viability assay."}}}
{"smiles": "OCCCNc1cc(-c2ccnc(Nc3cccc(Cl)c3)n2)ccn1", "values": [{"measurement": "IC50", "setting": "EB2", "result": "> 0.256", "unit": "µM"}, {"measurement": "IC50", "setting": "EVSA-T", "result": 0.135, "unit": "µM"}, {"measurement": "IC50", "setting": "IM-9", "result": "> 0.256", "unit": "µM"}, {"measurement": "IC50", "setting": "IMR-5", "result": 0.124, "unit": "µM"}, {"measurement": "IC50", "setting": "LC4-1", "result": 0.0713, "unit": "µM"}, {"measurement": "IC50", "setting": "LP-1", "result": 0.0521, "unit": "µM"}, {"measurement": "IC50", "setting": "NCI-H2141", "result": 0.102, "unit": "µM"}, {"measurement": "IC50", "setting": "RPMI 8402", "result": 0.0709, "unit": "µM"}, {"measurement": "IC50", "setting": "SNU-C1", "result": "> 0.256", "unit": "µM"}, {"measurement": "IC50", "setting": "TALL-1", "result": 0.0941, "unit": "µM"}, {"measurement": "IC50", "setting": "BL-70", "result": 0.0301, "unit": "µM"}, {"measurement": "IC50", "setting": "YT", "result": "> 0.256", "unit": "µM"}]}
{"smiles": "N[C@@H](CSC(c1ccccc1)(c1ccccc1)c1ccccc1)C(=O)O", "note": "[S-TRITYL-L-CYSTEINE]", "values": [{"measurement": "IC50", "setting": "EB2", "result": "> 5.12", "unit": "µM"}, {"measurement": "IC50", "setting": "EVSA-T", "result": 3.4, "unit": "µM"}, {"measurement": "IC50", "setting": "IM-9", "result": "> 5.12", "unit": "µM"}, {"measurement": "IC50", "setting": "IMR-5", "result": 1.27, "unit": "µM"}, {"measurement": "IC50", "setting": "LC4-1", "result": 2.02, "unit": "µM"}, {"measurement": "IC50", "setting": "LP-1", "result": 3.11, "unit": "µM"}, {"measurement": "IC50", "setting": "NCI-H2141", "result": 4.36, "unit": "µM"}, {"measurement": "IC50", "setting": "RPMI 8402", "result": 1.28, "unit": "µM"}, {"measurement": "IC50", "setting": "SNU-C1", "result": "> 5.12", "unit": "µM"}, {"measurement": "IC50", "setting": "TALL-1", "result": 2.53, "unit": "µM"}, {"measurement": "IC50", "setting": "BL-70", "result": 0.547, "unit": "µM"}, {"measurement": "IC50", "setting": "YT", "result": "> 5.12", "unit": "µM"}]}
{"smiles": "COc1cc(-c2nn([C@H]3CC[C@H](N4CCN(C(C)=O)CC4)CC3)c3ncnc(N)c23)ccc1NC(=O)c1cc2ccccc2n1C", "values": [{"measurement": "IC50", "setting": "EB2", "result": "> 5.12", "unit": "µM"}, {"measurement": "IC50", "setting": "EVSA-T", "result": "> 5.12", "unit": "µM"}, {"measurement": "IC50", "setting": "IM-9", "result": "> 5.12", "unit": "µM"}, {"measurement": "IC50", "setting": "IMR-5", "result": "> 5.12", "unit": "µM"}, {"measurement": "IC50", "setting": "LC4-1", "result": "> 5.12", "unit": "µM"}, {"measurement": "IC50", "setting": "LP-1", "result": "> 5.12", "unit": "µM"}, {"measurement": "IC50", "setting": "NCI-H2141", "result": "> 5.12", "unit": "µM"}, {"measurement": "IC50", "setting": "RPMI 8402", "result": "> 5.12", "unit": "µM"}, {"measurement": "IC50", "setting": "SNU-C1", "result": "> 5.12", "unit": "µM"}, {"measurement": "IC50", "setting": "TALL-1", "result": "> 5.12", "unit": "µM"}, {"measurement": "IC50", "setting": "BL-70", "result": "< 0.02", "unit": "µM"}, {"measurement": "IC50", "setting": "YT", "result": "> 5.12", "unit": "µM"}]}
{"smiles": "COc1cc(N2CCN(C)CC2)ccc1Nc1ncc2c(n1)N(C)c1ccccc1C(=O)N2C", "values": [{"measurement": "IC50", "setting": "EB2", "result": 2.82, "unit": "µM"}, {"measurement": "IC50", "setting": "EVSA-T", "result": "> 8", "unit": "µM"}, {"measurement": "IC50", "setting": "IM-9", "result": "> 8", "unit": "µM"}, {"measurement": "IC50", "setting": "IMR-5", "result": 6.35, "unit": "µM"}, {"measurement": "IC50", "setting": "LC4-1", "result": 4.02, "unit": "µM"}, {"measurement": "IC50", "setting": "LP-1", "result": "> 8", "unit": "µM"}, {"measurement": "IC50", "setting": "NCI-H2141", "result": "> 8", "unit": "µM"}, {"measurement": "IC50", "setting": "RPMI 8402", "result": 4.5, "unit": "µM"}, {"measurement": "IC50", "setting": "SNU-C1", "result": "> 8", "unit": "µM"}, {"measurement": "IC50", "setting": "TALL-1", "result": "> 8", "unit": "µM"}, {"measurement": "IC50", "setting": "BL-70", "result": "> 8", "unit": "µM"}, {"measurement": "IC50", "setting": "YT", "result": 3.48, "unit": "µM"}]}
{"smiles": "C#Cc1cccc(Nc2ncnc3cc(OCCOC)c(OCCOC)cc23)c1", "note": "[ERLOTINIB]", "values": [{"measurement": "IC50", "setting": "EB2", "result": "> 2", "unit": "µM"}, {"measurement": "IC50", "setting": "EVSA-T", "result": "> 2", "unit": "µM"}, {"measurement": "IC50", "setting": "IM-9", "result": "> 2", "unit": "µM"}, {"measurement": "IC50", "setting": "IMR-5", "result": "> 2", "unit": "µM"}, {"measurement": "IC50", "setting": "LC4-1", "result": "> 2", "unit": "µM"}, {"measurement": "IC50", "setting": "LP-1", "result": "> 2", "unit": "µM"}, {"measurement": "IC50", "setting": "NCI-H2141", "result": "> 2", "unit": "µM"}, {"measurement": "IC50", "setting": "SNU-C1", "result": "> 2", "unit": "µM"}, {"measurement": "IC50", "setting": "BL-70", "result": "> 2", "unit": "µM"}, {"measurement": "IC50", "setting": "YT", "result": "> 2", "unit": "µM"}]}
{"smiles": "COc1cc2ncn(-c3cc(OCc4ccccc4C(F)(F)F)c(C(N)=O)s3)c2cc1OC", "note": "[GW843682X]", "values": [{"measurement": "IC50", "setting": "EB2", "result": "> 0.256", "unit": "µM"}, {"measurement": "IC50", "setting": "EVSA-T", "result": 0.237, "unit": "µM"}, {"measurement": "IC50", "setting": "IM-9", "result": "> 0.256", "unit": "µM"}, {"measurement": "IC50", "setting": "IMR-5", "result": 0.0354, "unit": "µM"}, {"measurement": "IC50", "setting": "LC4-1", "result": 0.0545, "unit": "µM"}, {"measurement": "IC50", "setting": "LP-1", "result": 0.0625, "unit": "µM"}, {"measurement": "IC50", "setting": "NCI-H2141", "result": 0.159, "unit": "µM"}, {"measurement": "IC50", "setting": "RPMI 8402", "result": 0.00467, "unit": "µM"}, {"measurement": "IC50", "setting": "SNU-C1", "result": "> 0.256", "unit": "µM"}, {"measurement": "IC50", "setting": "TALL-1", "result": 0.013, "unit": "µM"}, {"measurement": "IC50", "setting": "BL-70", "result": 0.00855, "unit": "µM"}, {"measurement": "IC50", "setting": "YT", "result": "> 0.256", "unit": "µM"}]}
